Experimental data reported in ChEMBL document CHEMBL1156342, “Five new diprenylated flavonols from the leaves of Broussonetia kazinoki” (2001).
In brackets after ≈: the same amount, converted by molar mass.

How the values were obtained:
Type in all cases: functional
HCT-8 = assay: Cytotoxicity against human HCT8 cells after 5 days by MTT assay; details: HCT-8, 120 h, read-out: ED50 (the source's name)
A549 = assay: Cytotoxicity against human A549 cells after 5 days by MTT assay; details: A549, 120 h, read-out: ED50 (the source's name)
KB = assay: Cytotoxicity against human KB cells after 5 days by MTT assay; details: 120 h, read-out: ED50 (the source's name)

Structure (SMILES) | EC50 (HCT-8) | EC50 (A549) | EC50 (KB)
C=CC(C)(C)c1c(O)cc(O)c2c(=O)c(O)c(-c3cc(O)c4c(c3)C=CC(C)(C)O4)oc12 [BROUSSONOL A] | 9.1 µg/mL (≈ 20.8 µM) | 8.74 µg/mL (≈ 20 µM) | > 10 µg/mL
CC1Oc2cc(O)c3c(=O)c(O)c(-c4cc(O)c5c(c4)C=CC(C)(C)O5)oc3c2C1(C)C (stereo unspecified) [BROUSSONOL B] | 8.8 µg/mL (≈ 20.2 µM) | 5.52 µg/mL (≈ 12.6 µM) | > 10 µg/mL
CC(C)=CCc1cc(-c2oc3c4c(cc(O)c3c(=O)c2O)OC(C)C4(C)C)cc(O)c1O (stereo unspecified) [BROUSSONOL C] | 9.63 µg/mL (≈ 22 µM) | 7.77 µg/mL (≈ 17.7 µM) | > 10 µg/mL
CC(C)=CCc1cc(-c2oc3c(CC=C(C)C)c(O)cc(O)c3c(=O)c2O)cc(O)c1O [BROUSSONOL D] | > 10 µg/mL | > 10 µg/mL | 4.15 µg/mL (≈ 9.46 µM)
CC(C)=CCc1cc(-c2oc3cc(O)c(CC=C(C)C)c(O)c3c(=O)c2O)cc(O)c1O [BROUSSONOL E] | > 10 µg/mL | > 10 µg/mL | > 10 µg/mL
CC(C)=CCc1c(CCCc2ccc(O)cc2O)cc(O)c(O)c1CC=C(C)C [KAZINOL F] | > 10 µg/mL | > 10 µg/mL | > 10 µg/mL
COc1cc(O)ccc1CCCc1cc(O)c(O)c(CC=C(C)C)c1CC=C(C)C [KAZINOL J] | > 10 µg/mL | > 10 µg/mL | > 10 µg/mL
